Laboratory results taken from PubChem BioAssay AID330 (DTP/NCI, 2004).
Several values for one entry are separate records, joined by “and”; a condition that tells them apart may be missing. Equal values may be shown once. Toxic doses and inconclusive results are not listed. Rule for the calls: active = survival T/C of 150% or more; inactive = T/C below 125% in these data.

Test system: P388 leukemia ip, CD2F1 mice, survival T/C
Experiment: NCI In Vivo Anticancer Drug Screen. Data for tumor model P388 Leukemia (intraperitoneal) in CD2F1 (CDF1) mice
Conditions: endpoint: median survival time, higher = longer survival
Method in brief: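 Mice carrying the transplanted tumor received test compound or vehicle. Survival was recorded in each group, and the value is the treated-group measurement divided by that of the vehicle-treated control group.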

[1] = dose: 50.0 mg/kg/injection, schedule: Q01DX005 (ip), vehicle: saline with Tween-80
[2] = dose: 50.0 mg/kg/injection, schedule: Q01DX005 (ip), vehicle: saline
[3] = dose: 100.0 mg/kg/injection, schedule: Q01DX009 (ip), vehicle: saline with Tween-80
[4] = dose: 200.0 mg/kg/injection, schedule: Q01DX009 (ip), vehicle: saline with Tween-80
[5] = dose: 100.0 mg/kg/injection, schedule: Q01DX005 (ip), vehicle: saline with Tween-80
[6] = dose: 200.0 mg/kg/injection, schedule: Q01DX005 (ip), vehicle: saline with Tween-80
[7] = dose: 50.0 mg/kg/injection, schedule: Q01DX009 (ip), vehicle: Klucel (hydroxypropylcellulose) (HPC)
[8] = dose: 100.0 mg/kg/injection, schedule: Q01DX009 (ip), vehicle: Klucel (hydroxypropylcellulose) (HPC)
[9] = dose: 200.0 mg/kg/injection, schedule: Q01DX009 (ip), vehicle: Klucel (hydroxypropylcellulose) (HPC)
[10] = dose: 50.0 mg/kg/injection, schedule: Q01DX009 (ip), vehicle: saline
[11] = dose: 100.0 mg/kg/injection, schedule: Q01DX009 (ip), vehicle: saline
[12] = dose: 200.0 mg/kg/injection, schedule: Q01DX009 (ip), vehicle: saline

Measured: T/C

CC(C)=CCC/C(C)=C/COc1cc(O)c2c(c1)C(=O)c1cc(C)cc(O)c1C2=O
inactive: dose: 5.0 mg/kg/injection, schedule: Q01DX009 (ip), vehicle: DMSO 100 % of control | dose: 10.0 mg/kg/injection, schedule: Q01DX009 (ip), vehicle: DMSO 97 % of control | dose: 20.0 mg/kg/injection, schedule: Q01DX009 (ip), vehicle: DMSO 97 % of control

COc1cc2cc(-c3ccccc3)[n+](C)cc2cc1OC
inactive: dose: 12.5 mg/kg/injection, schedule: Q01DX001 (ip), vehicle: saline 95 % of control | dose: 25.0 mg/kg/injection, schedule: Q01DX001 (ip), vehicle: saline 110 % of control

O=C1N=C2SCCN2C1(c1ccccc1)c1ccccc1
inactive: dose: 25.0 mg/kg/injection, schedule: Q04DX003 (ip), vehicle: Klucel (hydroxypropylcellulose) (HPC) 100 % of control | dose: 50.0 mg/kg/injection, schedule: Q04DX003 (ip), vehicle: Klucel (hydroxypropylcellulose) (HPC) 100 % of control | dose: 100.0 mg/kg/injection, schedule: Q04DX003 (ip), vehicle: Klucel (hydroxypropylcellulose) (HPC) 92 % of control | dose: 200.0 mg/kg/injection, schedule: Q04DX003 (ip), vehicle: Klucel (hydroxypropylcellulose) (HPC) 109 % of control | dose: 400.0 mg/kg/injection, schedule: Q04DX003 (ip), vehicle: Klucel (hydroxypropylcellulose) (HPC) 103 % of control

CC(=O)Nc1cc2nc[nH]c2cn1
inactive: dose: 100.0 mg/kg/injection, schedule: Q04DX002 (ip), vehicle: saline 99 % of control | dose: 200.0 mg/kg/injection, schedule: Q04DX002 (ip), vehicle: saline 106 % of control | dose: 400.0 mg/kg/injection, schedule: Q04DX002 (ip), vehicle: saline 106 % of control

COc1cc2c(cc1-c1coc3cc(O)ccc3c1=O)OCO2
inactive: dose: 1.1 mg/kg/injection, schedule: Q01DX005 (ip), vehicle: Klucel (hydroxypropylcellulose) (HPC) 90 % of control | dose: 2.13 mg/kg/injection, schedule: Q01DX005 (ip), vehicle: Klucel (hydroxypropylcellulose) (HPC) 86 % of control | dose: 4.25 mg/kg/injection, schedule: Q01DX005 (ip), vehicle: Klucel (hydroxypropylcellulose) (HPC) 92 % of control and 96 % of control | dose: 8.5 mg/kg/injection, schedule: Q01DX005 (ip), vehicle: Klucel (hydroxypropylcellulose) (HPC) 88 % of control and 94 % of control | dose: 68.0 mg/kg/injection, schedule: Q01DX005 (ip), vehicle: Klucel (hydroxypropylcellulose) (HPC) 86 % of control

CC(C)(C(N=Cc1ccccc1)c1ccccc1)[N+](=O)[O-] (centres undefined)
inactive: dose: 60.0 mg/kg/injection, schedule: Q01DX005 (ip), vehicle: saline with Tween-80 100 % of control | dose: 120.0 mg/kg/injection, schedule: Q01DX005 (ip), vehicle: saline with Tween-80 98 % of control | dose: 240.0 mg/kg/injection, schedule: Q01DX005 (ip), vehicle: saline with Tween-80 99 % of control

CCN(CC)CCNc1ncnc2c1cnn2C
inactive: dose: 12.5 mg/kg/injection, schedule: Q01DX005 (ip), vehicle: saline 106 % of control | dose: 25.0 mg/kg/injection, schedule: Q01DX005 (ip), vehicle: saline 106 % of control | [1] 99 % of control | [2] 106 % of control

CC(=O)n1c(Cl)c(/C=N/Nc2ccccc2[N+](=O)[O-])c2ccccc21
inactive: dose: 25.0 mg/kg/injection, schedule: Q01DX001 (ip), vehicle: Klucel (hydroxypropylcellulose) (HPC) 91 % of control | dose: 50.0 mg/kg/injection, schedule: Q01DX001 (ip), vehicle: Klucel (hydroxypropylcellulose) (HPC) 99 % of control | dose: 100.0 mg/kg/injection, schedule: Q01DX001 (ip), vehicle: Klucel (hydroxypropylcellulose) (HPC) 87 % of control and 91 % of control

CC(C)(C)C(S)CS (centres undefined)
inactive: dose: 12.5 mg/kg/injection, schedule: Q01DX005 (ip), vehicle: saline with Tween-80 104 % of control | dose: 25.0 mg/kg/injection, schedule: Q01DX005 (ip), vehicle: saline with Tween-80 104 % of control | [1] 101 % of control and 103 % of control

C=CC1C(C[C@@H]2c3cc(O)c(O)cc3CCN2C(C)=O)C(C(=O)OC)=CO[C@H]1OC1OC(CO)C(O)C(O)C1O (some centres undefined)
inactive: dose: 60.0 mg/kg/injection, schedule: Q01DX005 (ip), vehicle: saline 105 % of control | dose: 120.0 mg/kg/injection, schedule: Q01DX005 (ip), vehicle: saline 103 % of control | dose: 240.0 mg/kg/injection, schedule: Q01DX005 (ip), vehicle: saline 104 % of control

CSC(=Nc1nc2ccc([N+](=O)[O-])cc2s1)SC
inactive: dose: 6.25 mg/kg/injection, schedule: Q01DX009 (ip), vehicle: Klucel (hydroxypropylcellulose) (HPC) 101 % of control | dose: 12.5 mg/kg/injection, schedule: Q01DX009 (ip), vehicle: Klucel (hydroxypropylcellulose) (HPC) 103 % of control | dose: 25.0 mg/kg/injection, schedule: Q01DX009 (ip), vehicle: Klucel (hydroxypropylcellulose) (HPC) 103 % of control

CCCCOC(=O)c1ccc(NC(=O)Nc2cc(C)ccc2C)cc1
inactive: dose: 50.0 mg/kg/injection, schedule: Q01DX009 (ip), vehicle: saline with Tween-80 96 % of control | [3] 94 % of control | [4] 91 % of control

COc1cc2c(cc1C/C=C/c1ccccc1)OCO2
inactive: [1] 105 % of control | [5] 109 % of control | [6] 112 % of control

CN(C)C(C)(C)P(=O)(O)O
inactive: [3] 100 % of control | [4] 100 % of control | dose: 400.0 mg/kg/injection, schedule: Q01DX009 (ip), vehicle: saline with Tween-80 100 % of control

Cc1nn(C(=O)c2ccncc2)c(C)c1N=Nc1ccc(S(=O)(=O)Nc2ccccn2)cc1
inactive: [7] 100 % of control | [8] 91 % of control | [9] 92 % of control

CC1(C)CC(=O)C=C(NCCCCNC2=CC(=O)CC(C)(C)C2)C1
inactive: [7] 95 % of control | [8] 95 % of control | [9] 95 % of control

COCCn1c2nc(=O)n(-c3ccccc3)c(=O)c-2nc2c1CCCC2
inactive: dose: 25.0 mg/kg/injection, schedule: Q01DX009 (ip), vehicle: saline 100 % of control | [10] 93 % of control | [11] 94 % of control | [12] 116 % of control

CNCCc1ccc(O)c(O)c1
inactive: [11] 108 % of control and 118 % of control | [12] 111 % of control and 98 % of control | dose: 400.0 mg/kg/injection, schedule: Q01DX009 (ip), vehicle: saline 116 % of control and 90 % of control

NCCO/C=C/C(N)C(=O)O (centres undefined)
inactive: dose: 31.2 mg/kg/injection, schedule: Q01DX009 (ip), vehicle: saline 99 % of control | dose: 62.5 mg/kg/injection, schedule: Q01DX009 (ip), vehicle: saline 99 % of control | dose: 125.0 mg/kg/injection, schedule: Q01DX009 (ip), vehicle: saline 99 % of control

CCOC(=O)C/C(C)=N\NC(=O)c1ccncc1
inactive: dose: 37.0 mg/kg/injection, schedule: Q01DX009 (ip), vehicle: saline with Tween-80 97 % of control | dose: 75.0 mg/kg/injection, schedule: Q01DX009 (ip), vehicle: saline with Tween-80 105 % of control | dose: 150.0 mg/kg/injection, schedule: Q01DX009 (ip), vehicle: saline with Tween-80 106 % of control

O=C(CCl)NCC1OC(n2cnc3c(=O)[nH]cnc32)C(O)C1O (centres undefined)
inactive: [2] 98 % of control | dose: 100.0 mg/kg/injection, schedule: Q01DX005 (ip), vehicle: saline 96 % of control | dose: 200.0 mg/kg/injection, schedule: Q01DX005 (ip), vehicle: saline 100 % of control

O=C(NC(Cc1ccc(O)cc1)C(=O)O)c1ccccc1 (centres undefined)
inactive: [1] 99 % of control | [5] 100 % of control | [6] 88 % of control

CC1N=C(SCC(=O)c2ccc(Cl)cc2)N2C(C)N=C(SCC(=O)c3ccc(Cl)cc3)N12 (centres undefined)
inactive: [10] 98 % of control | [11] 90 % of control | [12] 90 % of control
